Experimental data as given in BindingDB's records for doi:10.1016/j.bmcl.2008.11.037 (Wyeth Research, 2009).

Molecular target: Insulin-like growth factor 1 receptor (Homo sapiens, UniProt P08069)
Assay: In Vitro Kinase Inhibition Assay
Procedure: Assays were performed in microtiter plates in reaction buffer containing biotinylated substrate, ATP, and purified kinase in the presence of test compounds. After incubation, product was detected using a homogeneous time-resolved fluorescence quenching assay (LANCE).

Sequence of Insulin-like growth factor 1 receptor (P08069 31-736 limits assumed): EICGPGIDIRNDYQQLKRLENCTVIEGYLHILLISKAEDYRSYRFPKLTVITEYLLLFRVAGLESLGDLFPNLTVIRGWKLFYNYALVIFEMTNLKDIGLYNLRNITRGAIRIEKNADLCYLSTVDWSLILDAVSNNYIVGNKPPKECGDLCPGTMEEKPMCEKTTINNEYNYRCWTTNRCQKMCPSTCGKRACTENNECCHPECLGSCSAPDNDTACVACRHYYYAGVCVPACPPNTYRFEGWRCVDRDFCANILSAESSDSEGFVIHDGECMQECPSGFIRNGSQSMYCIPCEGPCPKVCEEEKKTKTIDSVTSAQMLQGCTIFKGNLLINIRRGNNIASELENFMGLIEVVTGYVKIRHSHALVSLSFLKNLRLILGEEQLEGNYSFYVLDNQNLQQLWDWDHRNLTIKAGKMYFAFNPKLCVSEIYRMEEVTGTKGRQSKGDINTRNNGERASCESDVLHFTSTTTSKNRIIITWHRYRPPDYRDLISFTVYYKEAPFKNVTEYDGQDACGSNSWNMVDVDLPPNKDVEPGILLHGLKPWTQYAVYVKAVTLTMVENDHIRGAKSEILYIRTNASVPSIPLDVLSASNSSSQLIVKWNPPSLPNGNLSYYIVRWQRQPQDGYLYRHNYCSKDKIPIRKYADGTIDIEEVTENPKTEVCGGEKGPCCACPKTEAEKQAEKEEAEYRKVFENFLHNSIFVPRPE
Sequence of Insulin-like growth factor 1 receptor (P08069 741-1367 limits assumed): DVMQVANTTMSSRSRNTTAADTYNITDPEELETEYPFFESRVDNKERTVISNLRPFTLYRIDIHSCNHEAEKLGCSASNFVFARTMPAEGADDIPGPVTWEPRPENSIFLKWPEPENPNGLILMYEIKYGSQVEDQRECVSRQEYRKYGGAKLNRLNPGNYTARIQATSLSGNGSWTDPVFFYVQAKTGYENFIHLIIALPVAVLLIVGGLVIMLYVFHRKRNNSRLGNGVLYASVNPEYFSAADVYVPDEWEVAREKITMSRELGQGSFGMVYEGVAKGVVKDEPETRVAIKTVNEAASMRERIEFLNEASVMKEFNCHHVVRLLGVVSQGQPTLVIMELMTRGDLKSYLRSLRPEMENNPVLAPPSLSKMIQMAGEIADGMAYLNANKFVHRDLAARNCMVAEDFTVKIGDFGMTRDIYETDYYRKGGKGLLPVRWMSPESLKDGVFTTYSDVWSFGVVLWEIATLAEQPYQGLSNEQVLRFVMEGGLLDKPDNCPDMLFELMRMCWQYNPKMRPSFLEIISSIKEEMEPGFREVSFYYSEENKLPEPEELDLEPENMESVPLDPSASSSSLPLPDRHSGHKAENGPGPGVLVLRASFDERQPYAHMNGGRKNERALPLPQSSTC

IC50 [nM] | IC50 (pH 7.5, 22 °C) [nM] | SMILES
17 | – | CCn1c(Sc2ccc(Nc3c(C#N)cnc4cc(OCCCN5CCN(CCOC(N)=O)CC5)c(OC)cc34)cc2Cl)nc(C)c1C [{2-[4-(3-{[4-({3-chloro-4-[(1-ethyl-4,5-dimethyl-1H-imidazol-2-yl)sulfanyl]phenyl}amino)-3-cyano-6-methoxyquinolin-7-yl]oxy}propyl)piperazin-1-yl]ethyl} carbamate]
– | 291 | COc1cc2c(Nc3ccc(Sc4ncc(C)n4C)c(Cl)c3)c(C#N)cnc2cc1NCCCN(C)C [4-({3-chloro-4-[(1,5-dimethyl-1H-imidazol-2-yl)sulfanyl]phenyl}amino)-7-{[3-(dimethylamino)propyl]amino}-6-methoxyquinoline-3-carbonitrile]
– | 20 | CCn1c(Sc2ccc(Nc3c(C#N)cnc4cc(NCCCN5CCOCC5)c(OC)cc34)cc2Cl)nc(C)c1C [4-({3-chloro-4-[(1-ethyl-4,5-dimethyl-1H-imidazol-2-yl)sulfanyl]phenyl}amino)-6-methoxy-7-{[3-(morpholin-4-yl)propyl]amino}quinoline-3-carbonitrile]
1090 | – | COc1cc2c(Nc3ccc(Sc4ccccc4)cc3)c(C#N)cnc2cc1OCCCN1CCOCC1 [6-methoxy-7-[3-(morpholin-4-yl)propoxy]-4-{[4-(phenylsulfanyl)phenyl]amino}quinoline-3-carbonitrile]
– | 135 | CCOC(=O)C1CCN(CCCOc2cc3ncc(C#N)c(Nc4ccc(Sc5nc(C)c(C)n5CC)c(Cl)c4)c3cc2OC)CC1 [ethyl 1-(3-{[4-({3-chloro-4-[(1-ethyl-4,5-dimethyl-1H-imidazol-2-yl)sulfanyl]phenyl}amino)-3-cyano-6-methoxyquinolin-7-yl]oxy}propyl)piperidine-4-carboxylate]
